Data published in patent US20250213475A1, “LIPOSOMAL COMPOSITIONS” (R.G.C.C. Holdings AG, priority 2022, published 2025).

Assays:
[1] = Encapsulation efficacy, indirect from free drug in supernatant by UV/VIS; assay type: physicochemical; details: analogue 1 mg/mL
Procedure: At the end of the above encapsulation process, the solution was centrifuged at 15.000 rpm for 20 minutes and the supernatant was kept for indirect encapsulation determination. The precipitate was lyophilized and kept for further analysis and characterization.
The supernatants after each centrifugation were kept and used to evaluate the amount of the free drug. Subtracting the amount of the free drug at the supernatant from the total added drug, the rest is considered as encapsulated. Briefly, from each solution samples were collected in order to prepare solutions, which were then evaluated with UV/VIS spectrometry. Based on standard curves, in which the different nucleosides were measured in solution on a UV-VIS spectrometer, different the remaining quantity was calculated. The encapsulation efficacy was measured then based on the following equation:
[formula] Quantity of the Nucleoside Analogue in the liposome=(Quantity of the Nucleoside Analogue initially added−Quantity of the Nucleoside Analogue in the supernatant).
For example, for {[2-(6-amino-9H-purin-9-yl)quinazolin-4-yl]oxy}phosphonic acid system code 1, after the centrifugation, we keep the supernatant from which, a fraction is collected to prepare a solution with targeted concertation of 10 ppm. Based on the Dilution Equation, C1V1=C2V2, C1=1000, because we consider, at the initial solution that the concentration is 1000 ppm (based on the fact that all of the added nucleoside analogue would be in the supernatant) • C2: is the targeted concentration, here 10 ppm • V2: volume of the final solution, here 10 mL
Thus, we take 100 uL from the supernatant and we dilute it to 10 mL final volume. The sample is quantified by UV/VIS spectrometry and we calculate the actual concentration of the sample. The concentration is converted to mass and we can estimate the final mass of the nucleoside analogue in the supernatant and in the liposome.

[2] = system: human lung cancer COLO699N cell line; assay: AlamarBlue cytotoxicity assay, COLO699N; assay type: cell-based; details: 0.01 μM to 10 μM, 24 h, 48 h and 72 h
Procedure: (§1) All cell lines were maintained at 37° C. in a humidified 5% CO2 atmosphere. AlamarBlue assay was performed to assess cell viability. The viable cells were seeded at a density of 2×10^4 (200 μl/well) in 96-well plate and incubated at 37° C. and 5% CO2 for 24 h to form a cell monolayer. After 24 h of incubation, supernatant on the monolayer was aspirated and 200 μl of medium and varying concentrations of the substances were added and incubated for 24 h, 48 h and 72 h time points. […] Fluorescence was measured at 560 nm excitation and 590 nm emission wavelength. The experiment was performed in triplicates. The average fluorescence was calculated for each triplicate. One sample t-test was used to determine differences in the mean by comparing the treated samples with the untreated controls. P values <0.05 were considered to indicate a statistically significant difference.

[3] = system: human colorectal carcinoma HCT116 cell line; assay: AlamarBlue cytotoxicity assay, HCT116; assay type: cell-based; details: HCT116, 0.01 μM to 10 μM, 24 h, 48 h and 72 h
Procedure: as §1

[4] = system: human breast adenocarcinoma (luminal type) MCF7 cell line; assay: AlamarBlue cytotoxicity assay, MCF7; assay type: cell-based; details: MCF7, 0.01 μM to 10 μM, 24 h, 48 h and 72 h
Procedure: as §1

[5] = system: human breast adenocarcinoma (triple negative) MDA-MB-231 cell line; assay: AlamarBlue cytotoxicity assay, MDA-MB-231; assay type: cell-based; details: MDA-MB-231, 0.01 μM to 10 μM, 24 h, 48 h and 72 h
Procedure: The human breast adenocarcinoma (luminal type) MCF7 cell line (ECACC 86012803), human breast adenocarcinoma (triple negative) MDA-MB-231 cell line (ECACC 92020424), human colorectal carcinoma HCT116 cell line (ECACC 91091005) and human lung cancer COLO699N cell line (ECACC 93052608) were culture in RPMI 1640 medium Catalog #R0883 (Sigma-Aldrich, Darmstadt, Germany) supplemented with 10% fetal bovine serum Catalog #FB-1001/500 (BioSera, Nuaille, France) and 1% L-glutamine Catalog #G7513-100ML (Sigma-Aldrich, Darmstadt, Germany). All cell lines were maintained at 37° C. in a humidified 5% CO2 atmosphere. AlamarBlue assay was performed to assess cell viability. The viable cells were seeded at a density of 2×10^4 (200 μl/well) in 96-well plate and incubated at 37° C. and 5% CO2 for 24 h to form a cell monolayer. After 24 h of incubation, supernatant on the monolayer was aspirated and 200 μl of medium and varying concentrations of the substances were added and incubated for 24 h, 48 h and 72 h time points. […] Fluorescence was measured at 560 nm excitation and 590 nm emission wavelength. […] The average fluorescence was calculated for each triplicate. […] Results were calculated using the Microsoft Excel 2016. […]

[6] = liposomal system code 2, DSPE-PEG:CHOL
[7] = liposomal system code 3, DSPE-PEG:PC:CHOL
[8] = liposomal system code 1, DSPE-PEG:CHOL:OA
[9] = liposomal system code 4, DSPE-PEG:CHOL:OA:PC
[10] = liposomal system code 5, DSPE-PEG:OA

Structure (SMILES) | Encapsulation Efficacy (EE %) [1, 6] | Encapsulation Efficacy (EE %) [1, 7] | Encapsulation Efficacy (EE %) [1, 8] | Encapsulation Efficacy (EE %) [1, 9] | Encapsulation Efficacy (EE %) [1, 10] | cytotoxic effect (in words) [2] | cytotoxic effect (in words) [3] | cytotoxic effect (in words) [4] | cytotoxic effect (in words) [5]
Nc1ccn(-c2nc(O)c3ccccc3n2)c(=O)n1 [4-amino-1-(4-hydroxyquinazolin-2-yl)-1,2-dihydropyrimidin-2-one] | 73.6% | 76.2% |  |  |  |  |  |  | 
Nc1ncnc2c1ncn2-c1nc(OP(=O)(O)O)c2ccccc2n1 [{[2-(6-amino-9H-purin-9-yl)quinazolin-4-yl]oxy}phosphonic acid] | 76.8% | 50.0% | 60.8% | 60.8% | 70.4% |  |  |  | 
Nc1ncnc2c1ncn2-c1nc(O)c2ccccc2n1 [2-(6-Amino-9H-purin-9-yl)quinazolin-4-ol, 2-(6-amino-9H-purin-9-yl)quinazolin-4-ol] | 55.2% | 65.1% | 55.2% | 54.4% | 65.6% | no statistically significant cytotoxic effect | no statistically significant cytotoxic effect | no statistically significant cytotoxic effect | no statistically significant cytotoxic effect
CC(=O)Nc1ccn(-c2nc(O)c3ccccc3n2)c(=O)n1 [N-[1-(4-hydroxyquinazolin-2-yl)-2-oxo-1,2-dihydropyrimidin-4-yl]acetamide] | 58.1% | 89.9% |  |  |  |  |  |  | 
